Read-outs that look alike come from different tables or passages of the source.
Columns and labels:
SARS-CoV-2 [1] = assay: microbe, parasite or virus in culture; conditions: Severe acute respiratory syndrome coronavirus 2, Vero C1008, 55 h, read-out: viability in comparison with non-infected cells
SARS-CoV-2 [2] = tested on: SARS-CoV-2

Row | Compound | viability at 25 µM (SARS-CoV-2 [1]) [%] | cell viability in comparison with non-infected cells (SARS-CoV-2 [2]; 1 µM) [%] | cell viability in comparison with non-infected cells (SARS-CoV-2 [2]; 10 µM) [%]
1 | CCC(CC)COC(=O)[C@H](C)N[P@](=O)(OC[C@H]1O[C@@](C#N)(c2ccc3c(N)ncnn23)[C@H](O)[C@@H]1O)Oc1ccccc1 [Remdesivir] | 97 | – | –
2 | C=C[C@H](OC(C)=O)c1ccc(OC(C)=O)cc1 [AAC, acetoxychavicol acetate] | – | 59 | 66

From patent EP4205753A1, “ANTIVIRAL PLANT EXTRACT COMPOSITION AND METHOD FOR PREPARING SUCH COMPOSITION” (priority 2021, dated 2023)
